Reference: patent publication US20080025918A1, “Invisible light fluorescent platelets for intraoperative detection of vascular thrombosis” (Beth Israel Deaconess Medical Center, Inc., priority 2006, published 2008)

Assays:
[1] = test system: resting platelets; test: P-selectin surface expression of resting loaded platelets; type: cell-based, human; conditions: resting platelets loaded with 2 μM IR-786
[2] = test system: washed pig platelets; test: Pig platelet aggregation (aggregometry); type: cell-based; conditions: washed pig platelets incubated 30 minutes with 2 μM IR-786
Procedure: To ensure that platelets loaded with 2 μM IR-786 retained function, the ability of IR-786-loaded platelets to aggregate in response to agonists was assessed. Loaded and non-loaded human platelets, resuspended at a density of 4×10^8 cells/mL in modified Tyrodes-HEPES buffer, were stimulated with agonists in siliconized glass tubes in an optical aggregometer (Chronolog, Havertown, Pa.). Assays were performed at 37° C. and with constant stirring. Aggregation was monitored by measurement of optical density of the platelet suspension (Croce et al., J. Biol. Chem., 1999; 274(51):36321-36327)
The ability of pig platelets to aggregate following incubation with IR-786 was also tested, using aggregometry as described above.

[3] = Spectral characteristics and relative fluorescence yield of IR-786 (absorbance and fluorescence measurements); type: physicochemical; conditions: for Relative Fluorescence Yield: samples matched for absorbance, 655 nm excitation
Procedure: Absorbance and fluorescence measurements were performed in 1 cm quartz cuvettes as described previously (Ohnishi et al., Mol. Imaging., 2005; 4(3):172-181). For measurement of relative fluorescence yield, IR-786 samples in Tyrodes-HEPES, methanol, or concentrated in washed platelets were matched for absorbance (0.1 A units) and area under the fluorescence emission curve calculated after excitation with a 5 mW 655 nm laser diode.

[4] = following incorporation into platelets

emission maximum [3, 4]: 804 nm
excitation maximum [3, 4]: 788 nm
Peak Absorbance ([3]; in Methanol): 775 nm
Peak Emission ([3]; in Methanol): 797 nm
Relative Fluorescence Yield ([3]; in Methanol): 9.5
Peak Absorbance ([3]; in Platelets): 788 nm
Peak Emission ([3]; in Platelets): 804 nm
Relative Fluorescence Yield ([3]; in Platelets): 1.0
Peak Absorbance ([3]; in Tyrode's-HEPES): 769 nm
Peak Emission ([3]; in Tyrode's-HEPES): 789 nm
Relative Fluorescence Yield ([3]; in Tyrode's-HEPES): 1.4
emission maximum ([3]; in aqueous buffer): 788.8 nm
excitation maximum ([3]; in aqueous buffer): 769.3 nm
SMILES: CN1C(=CC=C2CCCC(C=CC3=[N+](C)c4ccccc4C3(C)C)=C2Cl)C(C)(C)c2ccccc21.[O-][Cl+3]([O-])([O-])[O-] [IR-786]
P-selectin surface expression (platelet activation) [1]: no significant P-selectin surface expression
aggregation in response to thrombin or CRP [2]: aggregated normally
